Results as given in publication PMC8605905 (Oxidative Medicine and Cellular Longevity, 2021).
Entries after “also recorded” stand apart in the source; their conditions may differ.

What was measured:
Type in all cases: cell-based, Human
[1] = tested on: ∆K280 tauRD-DsRed SH-SY5Y cells; test: High content analysis of neurite outgrowth in ΔK280 tauRD-DsRed cells; conditions: inhibitor 10 μM on day 6, LM-021 10 μM
Description: (§1) On day 1, Aβ-GFP or ∆K280 tauRD-DsRed SH-SY5Y cells were plated into 24-well plates (6 × 10^4/well) followed by addition of retinoic acid. On day 2, cells were treated with coumarin-chalcone derivatives (5 or 10 μM) and with doxycycline (5 or 2 μg/ml) to induce the expression of Aβ-GFP or ∆K280 tauRD-DsRed. On day 8, 4% paraformaldehyde, 0.1% Triton X-100, and 3% BSA were used to fix, permeabilize, and block cells, respectively. Subsequently, the cells were stained with TUBB3 (neuronal class III β-tubulin) primary antibody (1 : 1000; Covance, Princeton, NJ, USA) at 4°C overnight. Goat anti-rabbit Alexa Fluor 555 secondary antibody (1 : 1000; Thermo Fisher Scientific) was then added, followed by a 3 h incubation at room temperature. Following staining nuclei with 4′,-6-diamidino-2-phenylindole (DAPI) (0.1 μg/ml; Sigma-Aldrich), the neurons were imaged by using the HCA system and analysed by using the Neurite Outgrowth Application Module (MetaXpress; Molecular Devices).
(§2) To monitor the cAMP-mediated signal transduction pathway, CRE-GFP 293 cells in 6-well plates (1 × 10^6/well) were pretreated with kinase inhibitor H-89 (LC Laboratories, Woburn, MA, USA), KN-62 (Cayman Chemical, Ann Arbor, MI, USA), U0126 (LC Laboratories), or wortmannin (LC Laboratories) (10 μM) for 4 h before forskolin or LM-021 (10 μM) addition for 5 h. GFP fluorescence/protein and total/phosphorylated PKA, CaMKII, ERK, PI3K, and CREB levels were examined. In addition, Aβ-GFP or ∆K280 tauRD-DsRed SH-SY5Y cells were treated with retinoic acid (10 μM) on day 1, followed by the addition of LM-021 (5 or 10 μM) and doxycycline (5 or 2 μg/ml) on day 2, as described. Kinase inhibitors (10 μM) were added on day 6. On day 8, the cells were collected for protein expression analysis of BDNF, BCL2 (BCL2 apoptosis regulator), and BAX (BCL2 associated X, apoptosis regulator), and total/phosphorylated PKA, CaMKII, ERK, PI3K, and CREB. Also, cells were stained with DAPI and assessed for neurite outgrowth as described above.

[2] = tested on: ∆K280 tauRD-DsRed SH-SY5Y cells; test: Western blot in ΔK280 tauRD-DsRed SH-SY5Y cells; conditions: inhibitor 10 μM on day 6, LM-021 10 μM
Description: as §2
(§3) Total proteins from CRE-GFP 293 and Aβ-GFP, ∆K280 tauRD-DsRed SH-SY5Y cells were extracted using lysis buffer (50 mM Tris-HCl (pH 8.0), 150 mM NaCl, 1 mM EDTA (pH 8.0), 1 mM EGTA (pH 8.0), 0.1% SDS, 0.5% sodium deoxycholate, 1% Triton X-100) containing phosphatase and protease inhibitor cocktails (Sigma-Aldrich). Protein concentrations were measured using a protein assay kit (Bio-Rad, Hercules, CA, USA), and 20 μg of proteins was separated with 10% SDS-PAGE and blotted onto polyvinylidene difluoride (PVDF) membranes (Sigma-Aldrich). After blocking, the membrane blot was incubated with primary antibody against GFP (1 : 500; Santa Cruz Biotechnology, Santa Cruz, CA, USA), PKA (1 : 1000; R&D Systems, Minneapolis, MN, USA), p-PKA (T197) (1 : 1000; Cell Signaling, Danvers, MA, USA), ERK (1 : 500; Cell Signaling), p-ERK (T202/Y204) (1 : 500; Cell Signaling), CaMKII (1 : 1000; Santa Cruz Biotechnology), p-CaMKII (T286) (1 : 1000; Cell Signaling), CREB (1 : 1000; Santa Cruz Biotechnology), p-CREB (S133) (1 : 1000; Millipore, Billerica, MA, USA), BDNF (1 : 500; Santa Cruz Biotechnology), BCL2 (1 : 500; BioVision), BAX (1 : 500; BioVision), GAPDH (glyceraldehyde-3-phosphate dehydrogenase, as a loading control) (1 : 1000; MDBio, Taipei, Taiwan), or β-tubulin (1 : 1000, Sigma-Aldrich, as a loading control). The immune complexes were visualized using horseradish peroxidase-conjugated goat anti-mouse or goat anti-rabbit IgG antibody (1 : 5000, GeneTex, Irvine, CA, USA) and a chemiluminescent substrate (Millipore).

CRE-GFP 293 cells [3] = test: CRE-GFP 293 reporter cell assay (flow cytometry); conditions: inhibitor 10 μM 4 h before LM-021 10 μM, presence or absence of Ca2+ ionophore
Source text: Using the pCRE-MetLuc2-Reporter plasmid (Clontech, Mountain View, CA, USA) as a template, the DNA fragment containing the cAMP response element (CRE) motifs and TATA-like promoter (PTAL) flanked by MluI and AgeI restriction sites was amplified by PCR using sense ([…], MluI site underlined) and antisense ([…], AgeI site underlined) primers. The amplified CRE-PTAL promoter fragment was cloned into pGEM-T Easy (Promega, Madison, WI, USA) and sequenced. The CRE-PTAL-containing MluI/AgeI fragment and GFP-containing AgeI/NotI fragment (from pEGFP-N1; Clontech) were subcloned into MluI- and NotI-digested pcDNA5/FRT/TO (Novagen, Madison, WI, USA). The resulting construct with CRE-PTAL-driving GFP was used to establish 293 GFP reporter cells by targeting insertion into Flp-In-293 cells according to the supplier's instructions (Invitrogen). The cells were grown in a medium containing 5 μg/ml blasticidin and 100 μg/ml hygromycin.
On day 1, CRE-GFP 293 cells were seeded into 48-well plates (5 × 10^4/well). After 24 h, cells were treated with Ca^2+ ionophore (2 μM) (Sigma-Aldrich) for 0–24 h. Cell viability was measured using 3,(4,5-dimethylthiazol-2-yl)-2,5-diphenyltetrazolium bromide (MTT) assay (Sigma-Aldrich). The absorbance of the insoluble purple formazan dye was quantified at 570 nm on a μQuant microplate spectrophotometer (Bio-Tek). In addition, the cells were treated with the Ca^2+ ionophore A23187 (0.5–10 μM) (Sigma-Aldrich) for 5 h, followed by analysis of GFP fluorescence by flow cytometry (Becton–Dickinson, Franklin Lakes, NJ, USA) with excitation/emission wavelengths at 488/507 nm. To monitor CREB activation, cells were treated with forskolin or coumarin-chalcone derivatives (5–10 μM) in the presence or absence of Ca^2+ ionophore (2 μM) for 5 h, and GFP fluorescence was analysed.
as §2

Aβ-GFP SH-SY5Y cells [4] = test: Western blot in Aβ-GFP SH-SY5Y cells; conditions: inhibitor 10 μM on day 6, LM-021 5 μM
Description: as §2, §3

CRE-GFP 293 cells [5] = test: Western blot in CRE-GFP 293 cells; conditions: inhibitor 10 μM, LM-021 10 μM, without Ca2+ ionophore, immunoblot
Description: as §2
Total proteins from CRE-GFP 293 and Aβ-GFP, ∆K280 tauRD-DsRed SH-SY5Y cells were extracted using lysis buffer (50 mM Tris-HCl (pH 8.0), 150 mM NaCl, 1 mM EDTA (pH 8.0), 1 mM EGTA (pH 8.0), 0.1% SDS, 0.5% sodium deoxycholate, 1% Triton X-100) containing phosphatase and protease inhibitor cocktails (Sigma-Aldrich). Protein concentrations were measured using a protein assay kit (Bio-Rad, Hercules, CA, USA), and 20 μg of proteins was separated with 10% SDS-PAGE and blotted onto polyvinylidene difluoride (PVDF) membranes (Sigma-Aldrich). […]

Aβ-GFP SH-SY5Y cells [6] = test: High content analysis of neurite outgrowth in Aβ-GFP cells; conditions: inhibitor 10 μM on day 6, LM-021 5 μM
Description: as §1, §2

SMILES | Effect of kinase inhibitor on LM-021-ameliorated neurite length and branch length [1] | Effect of kinase inhibitor on LM-021-upregulated kinase phosphorylation [2] | Effect of kinase inhibitor on LM-021 upregulation of p-CREB, pro-BDNF, m-BDNF, and BCL2 [2] | Effect of kinase inhibitor on LM-021-activated GFP levels (CRE-GFP 293 cells [3]) | Effect of kinase inhibitor on LM-021-upregulated kinase phosphorylation (Aβ-GFP SH-SY5Y cells [4]) | Effect of kinase inhibitor on LM-021 increase in p-CREB, pro-BDNF, m-BDNF, and BCL2 (Aβ-GFP SH-SY5Y cells [4]) | Effect of kinase inhibitor on increased p-CREB and GFP protein levels (CRE-GFP 293 cells [5]) | Effect of kinase inhibitor on LM-021-improved neurite length, processes, and branches (Aβ-GFP SH-SY5Y cells [6])
CN([C@@H](Cc1ccc(OS(=O)(=O)c2cccc3cnccc23)cc1)C(=O)N1CCN(c2ccccc2)CC1)S(=O)(=O)c1cccc2cnccc12 [KN-62] | reversed these effects | diminished the increase of p-CaMKII | attenuated the upregulation | attenuated the GFP levels | mitigated the upregulation of p-CaMKII; also recorded: normalized p-ERK | attenuated the increase | significantly reduced | counteracted these improvements
N#CC(=C(/N)Sc1ccccc1N)/C(C#N)=C(/N)Sc1ccccc1N [U0126] | reversed these effects | attenuated the rescue of p-ERK | attenuated the upregulation | attenuated the GFP levels | normalized p-ERK | attenuated the increase | significantly reduced | counteracted these improvements
